From publication PMC3192245 (Proteins, 2011) come the findings set out here.

SMILES strings stand for the structures.

For this assay, the target named is AtOPR3 (Arabidopsis thaliana, UniProt Q9FUP0). Kind of assay: X-ray crystal structure, […] Å. The format is binding. The note with it: ternary complex with 8-iso PGA1; one FMN per monomer.
Chain of AtOPR3 (Q9FUP0 whole entry): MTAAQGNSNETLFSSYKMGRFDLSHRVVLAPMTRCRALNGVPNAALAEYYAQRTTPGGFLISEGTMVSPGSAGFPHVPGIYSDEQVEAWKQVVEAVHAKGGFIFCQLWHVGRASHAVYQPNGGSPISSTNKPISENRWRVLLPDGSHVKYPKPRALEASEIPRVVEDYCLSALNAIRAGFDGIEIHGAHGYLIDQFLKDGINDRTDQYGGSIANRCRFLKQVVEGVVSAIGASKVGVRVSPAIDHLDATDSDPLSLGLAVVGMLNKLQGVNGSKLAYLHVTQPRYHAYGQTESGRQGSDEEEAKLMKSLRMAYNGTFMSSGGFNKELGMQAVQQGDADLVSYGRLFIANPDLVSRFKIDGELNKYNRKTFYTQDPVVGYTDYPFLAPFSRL

For `Cc1cc2nc3c(=O)[nH]c(=O)nc-3n(C[C@H](O)[C@H](O)[C@H](O)COP(=O)(O)O)c2cc1C` [FMN], the “X-ray crystal structure, 2.6 Å” value was “each AtOPR3 monomer contains one FMN and one 8-iso PGA1 molecule”.
